Legend:
[1] = biological target: Casein kinase I isoform gamma-2 (Homo sapiens) (UniProt P78368); experiment: Residual activity of CK1gamma2 at 1 uM by microplate scintillation counting
[2] = biological target: Macrophage colony-stimulating factor 1 receptor (Homo sapiens) (UniProt P07333); experiment: Residual activity of CSF1R at 1 uM by microplate scintillation counting
[3] = biological target: Dual specificity tyrosine-phosphorylation-regulated kinase 1A (Homo sapiens) (UniProt Q13627); experiment: Residual activity of DYRK1A at 1 uM by microplate scintillation counting
[4] = biological target: Receptor tyrosine-protein kinase erbB-4 (Homo sapiens) (UniProt Q15303); experiment: Residual activity of ERBB4 at 0.1 uM by microplate scintillation counting
[5] = biological target: Tyrosine-protein kinase Fgr (Homo sapiens) (UniProt P09769); experiment: Residual activity of FGR at 0.1 uM by microplate scintillation counting
[6] = system: Mast/stem cell growth factor receptor Kit (Homo sapiens), P10721 [T670I]; experiment: Residual activity of KIT T670I mutant at 0.1 uM by microplate scintillation counting
Mast/stem cell growth factor receptor Kit (Homo sapiens), P10721 [T670I], sequence (P10721 whole entry T670I): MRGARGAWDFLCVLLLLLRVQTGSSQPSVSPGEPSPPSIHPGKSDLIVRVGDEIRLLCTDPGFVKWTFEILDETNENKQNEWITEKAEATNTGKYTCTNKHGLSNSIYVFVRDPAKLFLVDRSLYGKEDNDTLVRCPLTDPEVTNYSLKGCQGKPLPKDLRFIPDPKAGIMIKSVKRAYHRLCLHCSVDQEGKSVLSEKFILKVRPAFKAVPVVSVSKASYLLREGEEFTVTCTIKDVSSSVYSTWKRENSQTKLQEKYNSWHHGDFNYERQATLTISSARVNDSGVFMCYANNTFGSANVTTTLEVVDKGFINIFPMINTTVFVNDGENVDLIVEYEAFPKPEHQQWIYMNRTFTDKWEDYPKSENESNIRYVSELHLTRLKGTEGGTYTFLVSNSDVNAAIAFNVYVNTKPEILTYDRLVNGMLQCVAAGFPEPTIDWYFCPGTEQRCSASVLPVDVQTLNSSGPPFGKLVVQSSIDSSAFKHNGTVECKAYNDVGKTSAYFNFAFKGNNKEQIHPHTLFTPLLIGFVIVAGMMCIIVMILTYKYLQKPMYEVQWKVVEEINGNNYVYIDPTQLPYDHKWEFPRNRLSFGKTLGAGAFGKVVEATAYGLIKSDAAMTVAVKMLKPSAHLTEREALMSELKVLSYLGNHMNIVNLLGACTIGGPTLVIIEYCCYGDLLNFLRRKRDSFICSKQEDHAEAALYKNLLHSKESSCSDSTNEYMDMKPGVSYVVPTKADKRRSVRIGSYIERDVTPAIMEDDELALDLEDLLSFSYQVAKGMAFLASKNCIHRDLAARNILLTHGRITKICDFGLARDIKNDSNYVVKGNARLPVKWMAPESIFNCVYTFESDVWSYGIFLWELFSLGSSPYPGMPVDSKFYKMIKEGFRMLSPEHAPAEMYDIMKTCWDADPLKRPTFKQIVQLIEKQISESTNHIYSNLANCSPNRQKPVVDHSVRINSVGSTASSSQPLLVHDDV

[7] = biological target: Mitogen-activated protein kinase kinase kinase kinase 4 (Homo sapiens) (UniProt O95819); experiment: Residual activity of MAP4K4 at 0.1 uM by microplate scintillation counting
[8] = biological target: Myosin light chain kinase 2, skeletal/cardiac muscle (Homo sapiens) (UniProt Q9H1R3); experiment: Residual activity of MYLK2 at 0.1 uM by microplate scintillation counting
Myosin light chain kinase 2, skeletal/cardiac muscle (Homo sapiens), sequence (Q9H1R3 whole entry): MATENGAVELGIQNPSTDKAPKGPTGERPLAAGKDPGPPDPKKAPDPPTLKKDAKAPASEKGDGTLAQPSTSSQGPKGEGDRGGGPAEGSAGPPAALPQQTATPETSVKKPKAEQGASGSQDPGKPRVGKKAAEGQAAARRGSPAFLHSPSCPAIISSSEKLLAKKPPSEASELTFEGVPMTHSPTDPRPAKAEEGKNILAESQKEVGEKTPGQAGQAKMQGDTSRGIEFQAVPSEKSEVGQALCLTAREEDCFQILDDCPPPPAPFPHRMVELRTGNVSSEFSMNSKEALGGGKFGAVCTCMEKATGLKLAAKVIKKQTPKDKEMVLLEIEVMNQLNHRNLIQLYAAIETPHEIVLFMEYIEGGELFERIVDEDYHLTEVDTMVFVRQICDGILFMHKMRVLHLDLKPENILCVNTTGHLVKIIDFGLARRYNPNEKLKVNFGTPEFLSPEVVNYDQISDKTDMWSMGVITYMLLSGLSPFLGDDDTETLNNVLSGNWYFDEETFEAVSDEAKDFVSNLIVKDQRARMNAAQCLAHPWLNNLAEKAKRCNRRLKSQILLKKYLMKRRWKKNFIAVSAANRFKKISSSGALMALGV

[9] = biological target: T1, Serine/threonine-protein kinase Sgk2 (Homo sapiens) (UniProt Q9HBY8); experiment: Residual activity of SGK2 at 1 uM by microplate scintillation counting
T1 sequence (whole entry): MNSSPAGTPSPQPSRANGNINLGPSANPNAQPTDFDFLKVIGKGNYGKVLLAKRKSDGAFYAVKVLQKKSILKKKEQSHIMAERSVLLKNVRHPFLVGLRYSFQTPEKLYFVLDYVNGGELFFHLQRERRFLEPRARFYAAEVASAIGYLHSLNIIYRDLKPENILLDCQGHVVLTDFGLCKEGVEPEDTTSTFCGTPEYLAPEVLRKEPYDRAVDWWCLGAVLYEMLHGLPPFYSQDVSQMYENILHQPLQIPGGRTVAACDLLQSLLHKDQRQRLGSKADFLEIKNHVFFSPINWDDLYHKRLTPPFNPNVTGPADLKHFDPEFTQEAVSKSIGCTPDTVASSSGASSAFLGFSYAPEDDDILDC

[10] = biological target: Mast/stem cell growth factor receptor Kit (Homo sapiens) (UniProt P10721); experiment: Residual activity of wild type KIT at 10 uM by microplate scintillation counting
Mast/stem cell growth factor receptor Kit (Homo sapiens), sequence (P10721 whole entry, the tested form may be a part): as the sequence (P10721 whole entry T670I) above, with I670T counted along it

[11] = biological target: LIM domain kinase 1 (Homo sapiens) (UniProt P53667); experiment: Residual activity of LIMK1 at 10 uM by microplate scintillation counting
[12] = biological target: T2, Serine/threonine-protein kinase VRK1 (Homo sapiens) (UniProt Q99986); experiment: Residual activity of VRK1 at 0.1 uM by microplate scintillation counting
T2 sequence (whole entry): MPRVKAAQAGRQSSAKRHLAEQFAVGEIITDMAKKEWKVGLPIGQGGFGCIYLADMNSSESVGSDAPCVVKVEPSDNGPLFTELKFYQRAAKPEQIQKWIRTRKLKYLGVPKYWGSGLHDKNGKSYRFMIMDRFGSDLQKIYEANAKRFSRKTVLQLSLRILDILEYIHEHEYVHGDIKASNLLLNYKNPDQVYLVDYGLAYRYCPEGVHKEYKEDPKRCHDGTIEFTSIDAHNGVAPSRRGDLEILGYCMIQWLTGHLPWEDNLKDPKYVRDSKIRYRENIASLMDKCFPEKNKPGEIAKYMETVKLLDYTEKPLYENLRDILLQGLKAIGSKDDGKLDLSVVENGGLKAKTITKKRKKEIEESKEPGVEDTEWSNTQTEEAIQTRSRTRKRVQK

[13] = biological target: T3, Aurora kinase C (Homo sapiens) (UniProt Q9UQB9); experiment: Residual activity of Aurora-C at 0.1 uM by microplate scintillation counting
T3 sequence (whole entry): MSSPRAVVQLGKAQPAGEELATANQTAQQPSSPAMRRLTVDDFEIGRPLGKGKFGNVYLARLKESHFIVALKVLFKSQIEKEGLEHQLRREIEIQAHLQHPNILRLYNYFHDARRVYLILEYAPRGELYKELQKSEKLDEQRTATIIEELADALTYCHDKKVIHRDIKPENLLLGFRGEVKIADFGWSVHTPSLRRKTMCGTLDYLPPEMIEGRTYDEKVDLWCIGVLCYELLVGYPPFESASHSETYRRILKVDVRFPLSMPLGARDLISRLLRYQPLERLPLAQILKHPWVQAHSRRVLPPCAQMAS

[14] = biological target: CDK1/Cyclin E (Homo sapiens) (UniProt P06493+P24864); experiment: Residual activity of CDK1/Cyclin E at 0.1 uM by microplate scintillation counting; type: protein-complex assay
[15] = biological target: Casein kinase II subunit alpha (Homo sapiens) (UniProt P68400); experiment: Residual activity of CK2alpha1 at 0.1 uM by microplate scintillation counting
[16] = biological target: Serine/threonine-protein kinase PAK 5 (Homo sapiens) (UniProt Q9P286); experiment: Residual activity of PAK7 at 0.1 uM by microplate scintillation counting
[17] = biological target: Serine/threonine-protein kinase pim-2 (Homo sapiens) (UniProt Q9P1W9); experiment: Residual activity of PIM2 at 0.1 uM by microplate scintillation counting
Serine/threonine-protein kinase pim-2 (Homo sapiens), sequence (Q9P1W9 whole entry, looked up): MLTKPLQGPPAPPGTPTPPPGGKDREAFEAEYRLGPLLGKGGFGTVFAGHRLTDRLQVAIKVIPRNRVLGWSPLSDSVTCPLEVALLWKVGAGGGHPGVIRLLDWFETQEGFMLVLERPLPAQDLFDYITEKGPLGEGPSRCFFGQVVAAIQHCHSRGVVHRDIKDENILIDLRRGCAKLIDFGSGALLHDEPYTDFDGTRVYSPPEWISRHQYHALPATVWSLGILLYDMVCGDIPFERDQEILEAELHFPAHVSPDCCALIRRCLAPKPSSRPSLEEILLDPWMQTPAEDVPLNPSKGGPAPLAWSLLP

[18] = biological target: Serine/threonine-protein kinase N1 (Homo sapiens) (UniProt Q16512); experiment: Residual activity of PRK1 at 10 uM by microplate scintillation counting
Serine/threonine-protein kinase N1 (Homo sapiens), sequence (Q16512 2-942 limits assumed): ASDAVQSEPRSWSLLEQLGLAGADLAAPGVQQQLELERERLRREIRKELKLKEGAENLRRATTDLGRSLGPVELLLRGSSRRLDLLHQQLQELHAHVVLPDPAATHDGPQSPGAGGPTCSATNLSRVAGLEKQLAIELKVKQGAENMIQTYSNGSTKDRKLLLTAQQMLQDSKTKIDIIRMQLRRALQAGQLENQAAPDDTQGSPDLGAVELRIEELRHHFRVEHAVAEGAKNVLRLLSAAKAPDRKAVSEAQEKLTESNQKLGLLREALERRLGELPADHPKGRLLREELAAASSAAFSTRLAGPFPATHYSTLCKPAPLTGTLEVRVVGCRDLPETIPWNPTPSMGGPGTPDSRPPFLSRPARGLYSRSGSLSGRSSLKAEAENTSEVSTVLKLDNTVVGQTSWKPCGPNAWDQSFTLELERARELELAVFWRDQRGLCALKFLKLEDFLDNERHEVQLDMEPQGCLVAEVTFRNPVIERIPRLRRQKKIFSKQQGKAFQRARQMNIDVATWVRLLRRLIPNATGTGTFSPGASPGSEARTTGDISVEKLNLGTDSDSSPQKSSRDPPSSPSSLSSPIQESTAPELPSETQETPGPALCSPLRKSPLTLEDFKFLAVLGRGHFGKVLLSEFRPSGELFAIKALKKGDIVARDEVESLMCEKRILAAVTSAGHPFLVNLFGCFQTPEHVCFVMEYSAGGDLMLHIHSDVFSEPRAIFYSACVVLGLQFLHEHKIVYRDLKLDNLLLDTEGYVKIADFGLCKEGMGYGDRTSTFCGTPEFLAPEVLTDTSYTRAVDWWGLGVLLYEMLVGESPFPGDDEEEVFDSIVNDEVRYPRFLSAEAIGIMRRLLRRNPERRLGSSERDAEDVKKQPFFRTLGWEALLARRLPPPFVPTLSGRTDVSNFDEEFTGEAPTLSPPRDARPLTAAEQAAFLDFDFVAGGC

[19] = biological target: T4, cAMP-dependent protein kinase catalytic subunit PRKX (Homo sapiens) (UniProt P51817); experiment: Residual activity of PRKX at 10 uM by microplate scintillation counting
T4 sequence (whole entry): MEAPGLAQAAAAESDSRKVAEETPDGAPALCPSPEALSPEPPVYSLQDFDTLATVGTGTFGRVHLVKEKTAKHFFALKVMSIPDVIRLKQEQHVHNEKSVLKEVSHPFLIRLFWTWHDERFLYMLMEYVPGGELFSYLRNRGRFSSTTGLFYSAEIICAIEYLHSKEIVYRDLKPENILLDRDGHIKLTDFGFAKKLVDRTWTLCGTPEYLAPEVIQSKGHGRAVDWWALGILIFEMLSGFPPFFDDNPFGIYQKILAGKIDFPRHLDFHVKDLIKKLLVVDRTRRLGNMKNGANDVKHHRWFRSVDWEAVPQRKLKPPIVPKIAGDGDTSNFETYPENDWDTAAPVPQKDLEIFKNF

[20] = biological target: Ribosomal protein S6 kinase alpha-6 (Homo sapiens) (UniProt Q9UK32); experiment: Residual activity of RPS6KA6 at 10 uM by microplate scintillation counting
Ribosomal protein S6 kinase alpha-6 (Homo sapiens), sequence (Q9UK32 whole entry): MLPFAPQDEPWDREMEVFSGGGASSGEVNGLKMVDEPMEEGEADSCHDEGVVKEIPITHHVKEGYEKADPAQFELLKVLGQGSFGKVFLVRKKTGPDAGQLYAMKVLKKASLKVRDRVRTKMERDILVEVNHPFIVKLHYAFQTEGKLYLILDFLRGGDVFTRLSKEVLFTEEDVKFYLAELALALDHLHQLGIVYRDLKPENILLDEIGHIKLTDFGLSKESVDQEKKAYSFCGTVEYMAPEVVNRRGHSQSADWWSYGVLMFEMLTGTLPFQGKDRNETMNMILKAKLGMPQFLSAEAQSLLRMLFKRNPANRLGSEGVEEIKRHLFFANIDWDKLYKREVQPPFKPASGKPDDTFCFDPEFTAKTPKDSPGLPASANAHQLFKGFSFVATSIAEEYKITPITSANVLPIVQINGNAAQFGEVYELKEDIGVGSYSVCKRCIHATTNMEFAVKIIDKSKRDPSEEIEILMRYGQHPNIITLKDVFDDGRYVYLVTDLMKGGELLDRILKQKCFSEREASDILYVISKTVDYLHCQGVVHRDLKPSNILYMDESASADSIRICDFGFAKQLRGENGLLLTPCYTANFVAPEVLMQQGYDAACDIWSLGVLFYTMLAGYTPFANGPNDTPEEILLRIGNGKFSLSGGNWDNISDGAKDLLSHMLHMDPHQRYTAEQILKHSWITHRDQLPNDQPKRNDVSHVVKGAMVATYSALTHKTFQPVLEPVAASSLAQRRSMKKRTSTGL

[21] = biological target: Ribosomal protein S6 kinase alpha-2 (Homo sapiens) (UniProt Q15349); experiment: Residual activity of RPS6KA2 at 0.1 uM by microplate scintillation counting
[22] = biological target: Vascular endothelial growth factor receptor 1 (Homo sapiens) (UniProt P17948); experiment: Residual activity of VEGFR1 at 0.1 uM by microplate scintillation counting
Vascular endothelial growth factor receptor 1 (Homo sapiens), sequence (P17948 whole entry): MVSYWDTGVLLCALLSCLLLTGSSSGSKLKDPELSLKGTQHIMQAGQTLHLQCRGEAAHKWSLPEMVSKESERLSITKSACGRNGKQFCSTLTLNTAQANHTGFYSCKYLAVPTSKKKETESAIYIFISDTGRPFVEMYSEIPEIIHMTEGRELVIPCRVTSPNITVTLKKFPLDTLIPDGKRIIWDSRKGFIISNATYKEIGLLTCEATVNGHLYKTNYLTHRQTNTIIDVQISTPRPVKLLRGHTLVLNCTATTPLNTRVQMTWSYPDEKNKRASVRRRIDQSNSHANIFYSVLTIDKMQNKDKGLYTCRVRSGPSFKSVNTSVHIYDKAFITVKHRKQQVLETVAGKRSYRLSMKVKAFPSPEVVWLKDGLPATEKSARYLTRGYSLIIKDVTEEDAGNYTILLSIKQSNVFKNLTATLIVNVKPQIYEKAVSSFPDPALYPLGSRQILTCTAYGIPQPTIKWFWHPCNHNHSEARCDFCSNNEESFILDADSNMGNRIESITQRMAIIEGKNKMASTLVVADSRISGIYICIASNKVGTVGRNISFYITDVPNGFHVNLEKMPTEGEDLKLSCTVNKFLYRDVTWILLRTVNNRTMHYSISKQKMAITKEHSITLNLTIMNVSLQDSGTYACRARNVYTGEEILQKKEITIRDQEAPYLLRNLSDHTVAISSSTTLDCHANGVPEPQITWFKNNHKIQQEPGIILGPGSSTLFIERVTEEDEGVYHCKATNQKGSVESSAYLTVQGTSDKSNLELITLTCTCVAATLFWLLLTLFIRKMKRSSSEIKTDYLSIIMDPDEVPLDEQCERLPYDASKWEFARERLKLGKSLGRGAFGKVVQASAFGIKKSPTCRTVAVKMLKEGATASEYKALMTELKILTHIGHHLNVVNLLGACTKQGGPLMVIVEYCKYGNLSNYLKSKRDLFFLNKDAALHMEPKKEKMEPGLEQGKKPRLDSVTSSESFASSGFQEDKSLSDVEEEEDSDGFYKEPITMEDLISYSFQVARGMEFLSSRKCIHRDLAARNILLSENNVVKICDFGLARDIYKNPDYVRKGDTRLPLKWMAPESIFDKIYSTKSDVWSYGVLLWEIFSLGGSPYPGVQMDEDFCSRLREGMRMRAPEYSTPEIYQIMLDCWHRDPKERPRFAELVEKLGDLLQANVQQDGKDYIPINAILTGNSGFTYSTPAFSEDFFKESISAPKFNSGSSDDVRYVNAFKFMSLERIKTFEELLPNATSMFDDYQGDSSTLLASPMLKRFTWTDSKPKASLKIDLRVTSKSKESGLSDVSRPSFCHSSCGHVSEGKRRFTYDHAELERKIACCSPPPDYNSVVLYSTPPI

residual activity [1] | residual activity [2] | residual activity [3] | residual activity [4] | residual activity [5] | residual activity [6] | residual activity [7] | residual activity [8] | residual activity [9] | residual activity [10] | residual activity [11] | residual activity [12] | residual activity [13] | residual activity [14] | residual activity [15] | residual activity [16] | residual activity [17] | residual activity [18] | residual activity [19] | residual activity [20] | SMILES | also measured
107% | 112% | 92% | 102% | 96% | 113% | 86% | 33% | 93% | 31% | 96% | 93% | 42% | 78% | 132% | 92% | 104% | 68% | 86% | 50% | COc1cc2c(Oc3ccc(-c4nc5ccccc5s4)cc3)ncnc2cc1OCCCN1CCCC1 | residual activity [21]: 92%; residual activity [22]: 96%
98% | 118% | 93% | 87% | 103% | 103% | 85% | 83% | 95% | 30% | 89% | 97% | 42% | 85% | 95% | 80% | 64% | 83% | 86% | 35% | COc1cc2c(Oc3ccc(-c4nc5ccccc5s4)cc3)ncnc2cc1OCCCN1CCN(C)CC1 | residual activity [21]: 90%; residual activity [22]: 93%
100% | 105% | 91% | 100% | 103% | 97% | 83% | 93% | 93% | 32% | 95% | 89% | 48% | 89% | 87% | 84% | 94% | 91% | 94% | 32% | COc1cc2c(Oc3ccc(-c4nc5ccccc5s4)cc3F)ncnc2cc1OCCCN1CCN(C)CC1 | residual activity [21]: 91%; residual activity [22]: 95%
